Test results taken from US10640518B2, “Condensed heterocyclic compounds and pesticides” (Nissan Chemical Corporation, priority 2016, dated 2020).

Legend:
Type in all cases: in vivo
Plutella xylostella = assay: Insecticidal test on Plutella xylostella (cabbage leaf soaking); conditions: 144 h, 500 ppm solution, cabbage leaves soaked, 3rd-instar larvae, 6 days after, 25° C.
Experimental: Test Example 2: Insecticidal Test on Plutella xylostella
(§1) 10% emulsifiable concentrates (or 10% wettable powders) of compounds of the present invention were diluted with water containing a spreader to obtain 500 ppm solutions. Leaves of cabbage were soaked in the solutions for about 10 seconds. After the soaking, the leaves were dried in air and placed in dishes. In each dish, five 3rd-instar larvae of Plutella xylostella were released, and the dishes were covered with lids and placed in an incubator at 25° C. 6 days after, dead insects in the dishes were counted, and the mortality was calculated by using the same equation as in Test Example 1. The test was carried out in duplicate.

Spodoptera litura = assay: Insecticidal test on Spodoptera litura (cabbage leaf soaking); conditions: 144 h, 500 ppm solution, cabbage leaves soaked, 3rd-instar larvae, 6 days after, 25° C.
Experimental: Test Example 3: Insecticidal Test on Spodoptera litura
as §1, with “Spodoptera litura” for “Plutella xylostella”

Ctenocephalides felis = assay: Test on the effect on Ctenocephalides felis (thin film contact); conditions: 96 h, application dose 10 μg/cm^2, adults, 4 days after the release, 25° C.
Experimental: Test Example 11: Test on the Effect on Ctenocephalides felis
(§2) 3.5 mg of compounds of the present invention were diluted with 3.5 ml of acetone to obtain 1,000 ppm solutions. 350 μl of the solutions were applied to the bottoms and the side walls of glass containers with an inner wall surface area of 35 cm^2, and acetone was volatilized to prepare thin films of the compounds on the inner walls of the glass containers. Since the inner wall surface area of each glass container was 35 cm^2, the application dose was 10 μg/cm^2.
(§3) To each glass container, five adults (male and female) of Ctenocephalides felis were released, and the containers were covered with lids and placed in an incubator at 25° C. 4 days after the release of the fleas, dead fleas were counted, and the mortality was calculated by using the same equation as in Test Example 1.

Aedes albopictus = assay: Insecticidal test on Aedes albopictus (larvae in well plate); conditions: final concentration 10 ppm, larvae one day after hatching, 3 days after, 25° C.
Experimental: Test Example 17: Insecticidal Test on Aedes albopictus
2 mg of compounds of the present invention were dissolved in 0.2 ml of dimethyl sulfoxide to prepare 1% (w/v) dimethyl sulfoxide solutions. 0.01 ml of the solutions were mixed with 0.99 ml of pure water to prepare 0.01% (w/v) solutions. To 0.3 ml plastic plates (Cellstar 96 well culture plates, manufactured by Greiner Bio-One International GmbH) as test plates, 0.09 ml of distilled water containing 30 larvae of Aedes albopictus one day after hatching was dropped, and 0.01 ml of the 0.01% (w/v) solutions were dropped so that the final concentration would be 10 ppm. The plates were covered with lids and placed in an incubator at 25° C. 3 days after, dead larvae were counted, and the mortality was calculated by using the same equation as in Test Example 1.

Rhipicephalus sanguineus = assay: Test on the effect on Rhipicephalus sanguineus (thin film contact); conditions: 96 h, application dose 10 μg/cm^2, protonymphs, 4 days after the release, 25° C.
Experimental: Test Example 10: Test on the Effect on Rhipicephalus sanguineus
as §2
as §3, with “protonymphs” for “adults”, “Rhipicephalus sanguineus” for “Ctenocephalides felis”, “ticks,” for “fleas,”, “ticks” for “fleas”

Nilaparvata lugens [1] = assay: Insecticidal test on Nilaparvata lugens (rice sheath soaking); conditions: 144 h, 500 ppm solution, rice sheaths soaked, 3rd-instar larvae, 6 days after, 25° C.
Experimental: Test Example 1: Insecticidal Test on Nilaparvata lugens
10% emulsifiable concentrates (or 10% wettable powders) of compounds of the present invention were diluted with water containing a spreader to obtain 500 ppm solutions. Rice sheaths were soaked in the solutions for about 10 seconds. After the soaking, the rice sheaths were dried in air and put in test tubes. In each tube, five 3rd-instar larvae of Nilaparvata luqgens were released, and the tubes were capped with sponge and placed in an incubator at 25° C. 6 days after, dead insects in the test tubes were counted, and the mortality was calculated in accordance with the following equation. The test was carried out in duplicate. Mortality (%)=(the number of dead insects/the number of released insects)×100)

Myzus persicae = assay: Insecticidal test on Myzus persicae (spray); conditions: 144 h, 500 ppm solution sprayed (2.5 mg/cm^2), apterous adults on cabbage leaves, 6 days after, 25° C.
Experimental: Test Example 5: Insecticidal Test on Myzus persicae
Wet absorbent cotton was laid on glass dishes having an inner diameter of 3 cm, and covered with leaves of cabbage cut into circles having a diameter of 3 cm, and 4 apterous adults of Myzus persicae were released. After a day, 10% emulsifiable concentrates (or 10% wettable powders) of compounds of the present invention were diluted with water containing a spreader to obtain 500 ppm solutions. The solutions were sprayed from a rotary spray tower (2.5 mg/cm^2), and the dishes were covered with lids and placed in an incubator at 25° C. 6 days after, dead insects were counted, and the mortality was calculated by using the same equation as in Test Example 1. The test was carried out in duplicate.

Nilaparvata lugens [2] = assay: Systemic insecticidal test on Nilaparvata lugens (root dipping); conditions: 20 ppm solution, rice seedling roots dipped 7 days, 3rd-instar larvae, 6 days after the release
Experimental: Test Example 7: Systemic Insecticidal Test on Nilaparvata lugens
10% emulsifiable concentrates of compounds of the present invention were diluted with tap water to obtain 20 ppm solutions, and root of rice plug seedlings (at the 2-leaf stage) were dipped in the solutions. 7 days after, the rice seedlings were picked and put in test tubes, and in each tube, five 3rd-instar larvae of Nilaparvata luqens were released, and the tubes were capped with sponge and placed in an incubator at 25° C. 6 days after the release of the insects, dead insects were counted, the and the mortality was calculated by using the same equation as in Test Example 1. The test was carried out in duplicate.

Reticulitermes speratus = assay: Insecticidal test on Reticulitermes speratus (treated river sand); conditions: 240 h, 0.5 ml of 100 ppm solution on 10 g river sand, adults, 10 days after, 25° C.
Experimental: Test Example 15: Insecticidal Test on Reticulitermes speratus
10% emulsifiable concentrates of the compounds of the present invention were prepared. The emulsifiable concentrates were diluted with water to prepare 100 ppm solutions. 0.5 ml of the solutions were dropped on 10 g of river sand and mixed. In dishes having an inner diameter of 4 cm, 1% agar (2 cm square) was laid, and the treated river sand and a filter paper piece as bait were placed. Adults of Reticulitermes speratus were released in the dishes, and the dishes were placed in an incubator at 25° C. 10 days after, dead insects in the dishes were counted, and the mortality was calculated by using the same equation as in Test Example 1. The test was carried out in duplicate.

[3] = system: Frankliniella occidentalis; assay: Insecticidal activity on Frankliniella occidentalis (spray on kidney bean leaves); conditions: 48 h, 500 ppm solution sprayed (2.5 mg/cm^2), larvae on kidney bean leaves, 2 days after
Experimental: Test Example 4: Insecticidal Activity on Frankliniella occidentalis
In styrol cups having an inner diameter of 7 cm, wet filter paper was laid, kidney bean leaves cut into a 3 cm square were laid on the paper, and each leaf was inoculated with 20 larvae of Frankliniella occidentalis. 10% emulsifiable concentrates (or 10% wettable powders) of compounds of the present invention were diluted with water containing a spreader to obtain 500 ppm solutions. 2.5 ml of the solutions were sprayed from a rotary spray tower into the styrol cups (2.5 mg/cm^2). 2 days after, dead insects were counted, and the insect damage degree on kidney bean leaves was examined. The mortality was calculated by using the same equation as in Test Example 1. The insect damage degree was evaluated from the proportion of the area with insect damage on the leaves, as follows. 1: 0 to 20% insect damage, 2: 20 to 50% insect damage, 3: 50 to 70% insect damage, and 4: 70% or higher insect damage. The test was carried out in duplicate.

Culex pipiens molestus = assay: Insecticidal test on Culex pipiens molestus (larvae in well plate); conditions: 24 h
Experimental: Test Example 16: Insecticidal Test on Culex pipiens molestus
2 mg of compounds of the present invention were dissolved in 0.2 ml of dimethyl sulfoxide to prepare 1% (w/v) dimethyl sulfoxide solutions. The solutions were diluted with distilled water by a factor of 100 to prepare 100 ppm solutions. To 1.9 ml plastic plates (Cellstar 24 well plate, manufactured by Greiner Bio-One International GmbH) as test plates, 0.7 ml of water containing 10 to 30 larvae of Culex pipiens molestus one day after hatching, and 0.2 ml of an aqueous suspension of aquarium fish food (TetraMin manufactured by Spectrum Brands Japan) as bait, were dropped. 0.1 ml of the 100 ppm solutions were dropped, and the plates were placed in an incubator at 25° C. 1 day after, dead larvae were counted, and the mortality was calculated by using the same equation as in Test Example 1. The test was carried out in duplicate.

Structure (SMILES)	mortality at 500 ppm (Plutella xylostella) [%]	mortality at 500 ppm (Spodoptera litura) [%]	mortality at 10 µg/cm2 (Ctenocephalides felis) [%]	mortality at 10 ppm (Aedes albopictus) [%]	mortality at 10 µg/cm2 (Rhipicephalus sanguineus) [%]	mortality at 500 ppm (Nilaparvata lugens [1]) [%]	mortality at 500 ppm (Myzus persicae) [%]	mortality at 20 ppm (Nilaparvata lugens [2]) [%]	mortality at 100 ppm (Reticulitermes speratus) [%]	mortality at 500 ppm [3] [%]	mortality at 100 ppm (Culex pipiens molestus) [%]
CCS(=O)(=O)c1c(-c2nc3cc(C(F)(F)F)cnc3n2C)nn2cc(-n3ccc(C(F)(F)F)n3)ccc12 [1-1-003a, 2-[3-(ethylsulfonyl)-6-(3-(trifluoromethyl)-1H-pyrazol-1-yl)pyrazolo[1,5-a]pyridin-2-yl]-3-methyl-6-(trifluoromethyl)-3H-imidazo[4,5-b]pyridine]	≥ 90	≥ 90	≥ 50	≥ 70							
CCS(=O)(=O)c1c(-c2cn3nc(C(F)(F)C(F)(F)F)sc3n2)nn2ccc(C(F)(F)F)cc12 [1-5-001a, 6-[3-(ethylsulfonyl)-5-(trifluoromethyl)pyrazolo[1,5-a]pyridin-2-yl]-2-(perfluoroethyl)imidazo[2,1-b][1,3,4]thiadiazole]	≥ 90	≥ 90	≥ 50	≥ 70	≥ 50						
CCS(=O)(=O)c1c2ccc(C(F)(F)F)cc2nn1-c1nc2cc(C(F)(F)F)cnc2n1C [1-10-001a, 2-[3-(ethylsulfonyl)-6-(trifluoromethyl)-2H-indazol-2-yl]-3-methyl-6-(trifluoromethyl)-3H-imidazo[4,5-b]pyridine]	≥ 90	≥ 90	≥ 50			≥ 90	≥ 90	≥ 90	≥ 70		
CCS(=O)(=O)c1c(-c2cn3cnc(C(F)(F)C(F)(F)F)cc3n2)nn2ccc(C(F)(F)F)cc12 [1-3-001a, 2-[3-(ethylsulfonyl)-5-(trifluoromethyl)pyrazolo[1,5-a]pyridin-2-yl]-7-(perfluoroethyl)imidazo[1,2-c]pyrimidine]	≥ 90	≥ 90	≥ 50	≥ 70	≥ 50					≥ 50	
CCS(=O)(=O)c1c(-c2nc3cc(C(F)(F)F)cnc3n2C)nn2cc(Cl)ccc12 [1-1-001a, 2-[6-chloro-3-(ethylsulfonyl)pyrazolo[1,5-a]pyridin-2-yl]-3-methyl-6-(trifluoromethyl)-3H-imidazo[4,5-b]pyridine]	≥ 90	≥ 90	≥ 50	≥ 70	≥ 50		≥ 90	≥ 90	≥ 70		100
